Assay results from patent USRE40086E1, “Method for treating bacterial infection with novel 7-substituted-9-substituted amino 6-demethyl-6-deoxytetracyclines” (Wyeth Holdings Corporation, priority 1991, dated 2008).

What was measured:
Assay type in all cases: cell-based
[1] = system: S. aureus UBMS 88-4 (Sensitive); assay: MIC, agar dilution; details: S. aureus UBMS 88-4; Table IA; unit assumed
E. coli UBMS 89-1 (tetM) = assay: MIC, agar dilution; details: E. coli UBMS 89-1 TetM; Table IA; unit assumed
S. aureus NEMC 8769/89-4 = assay: MIC, agar dilution (Table IA); details: unit assumed
E. coli MC4100 TetB = assay: MIC, agar dilution (Table IA); details: unit assumed
E. coli J3272 TetC = assay: MIC, agar dilution (Table IA); details: unit assumed
[2] = system: S. aureus UBMS 88-5 (tetM); assay: MIC, agar dilution; details: S. aureus UBMS 88-5 TetM; Table IA; unit assumed
[3] = system: S. aureus UBMS 88-7 (tetK); assay: MIC, agar dilution; details: S. aureus UBMS 88-7 TetK; Table IA; unit assumed
[4] = system: S. aureus UBMS 90-2 (tetM); assay: MIC, agar dilution; details: S. aureus UBMS 90-2 TetM; Table IA; unit assumed
E. coli J3272 Tet sens. = assay: MIC, agar dilution (Table IA); details: unit assumed
E. coli UBMS 90-4 (tetM) = assay: MIC, agar dilution; details: E. coli UBMS 90-4 TetM; Table IA; unit assumed
[5] = system: X. maltophilia NEMC 87210; assay: MIC, agar dilution (Table IA); details: unit assumed
E. coli BAJ9003 = assay: MIC, agar dilution (Table IA); details: unit assumed
E. coli UBMS 88-1 (tetB) = assay: MIC, agar dilution; details: E. coli UBMS 88-1 TetB; Table IA; unit assumed
E. coli UBMS 90-5 = assay: MIC, agar dilution (Table IA); details: unit assumed
E. coli PRP1 TetA = assay: MIC, agar dilution (Table IA); details: unit assumed
[6] = system: S. aureus UBMS 90-1 (tetM); assay: MIC, agar dilution; details: S. aureus UBMS 90-1 TetM; Table IA; unit assumed
[7] = system: S. aureus IVES 2943 (meth. resistant); assay: MIC, agar dilution; details: S. aureus IVES 2943; Table IA; unit assumed
[8] = system: S. aureus IVES 1983 (meth. resistant); assay: MIC, agar dilution; details: S. aureus IVES 1983; Table IA; unit assumed
[9] = system: S. aureus ATCC 29213 (Sensitive); assay: MIC, agar dilution; details: S. aureus ATCC 29213; Table IA; unit assumed
S. aureus ROSE (MP) = assay: MIC, agar dilution (Table IA); details: unit assumed
E. coli J3272 TetD = assay: MIC, agar dilution (Table IA); details: unit assumed
S. mariescens FDOR 8733 = assay: MIC, agar dilution (Table IA); details: unit assumed
E. faecalis 12201 = assay: MIC, agar dilution; details: Enterococcus 12201; Table IA; unit assumed
[10] = system: E. coli UBMS 89-2 (Sensitive); assay: MIC, agar dilution; details: E. coli UBMS 89-2 Tet Sens.; Table IA; unit assumed
E. coli J2175 = assay: MIC, agar dilution (Table IA); details: unit assumed
[11] = system: Ps. acruginosa ATCC 27853; assay: MIC, agar dilution (Table IA); details: unit assumed
E. coli #311 (MP) = assay: MIC, agar dilution (Table IA); details: unit assumed
[12] = system: S. aureus Smith (Sensitive); assay: MIC, agar dilution; details: S. aureus SMITH (MP); Table IA; unit assumed
E. faecalis ATCC 29212 = assay: MIC, agar dilution; details: E. faecalis ATCC 29212; Table IA; unit assumed
[13] = system: S. haemolyticus AVAH 88-3; assay: MIC, agar dilution; details: S. hemolyticus AVHAH 88-3; Table IA; unit assumed
[14] = system: S. aureus UBMS 90-3 (Sensitive); assay: MIC, agar dilution; details: S. aureus UBMS 90-3; Table IA; unit assumed
E. coli ATCC 25922 = assay: MIC, agar dilution; details: E. coli ATCC 25922; Table IA; unit assumed

Structure (SMILES) | Antibacterial activity (MIC) [1] [µg/mL] | Antibacterial activity (MIC) (E. coli UBMS 89-1 (tetM)) [µg/mL] | Antibacterial activity (MIC) (S. aureus NEMC 8769/89-4) [µg/mL] | Antibacterial activity (MIC) (E. coli MC4100 TetB) [µg/mL] | Antibacterial activity (MIC) (E. coli J3272 TetC) [µg/mL] | Antibacterial activity (MIC) [2] [µg/mL] | Antibacterial activity (MIC) [3] [µg/mL] | Antibacterial activity (MIC) [4] [µg/mL] | Antibacterial activity (MIC) (E. coli J3272 Tet sens.) [µg/mL] | Antibacterial activity (MIC) (E. coli UBMS 90-4 (tetM)) [µg/mL] | Antibacterial activity (MIC) [5] [µg/mL] | Antibacterial activity (MIC) (E. coli BAJ9003) [µg/mL] | Antibacterial activity (MIC) (E. coli UBMS 88-1 (tetB)) [µg/mL] | Antibacterial activity (MIC) (E. coli UBMS 90-5) [µg/mL] | Antibacterial activity (MIC) (E. coli PRP1 TetA) [µg/mL] | Antibacterial activity (MIC) [6] [µg/mL] | Antibacterial activity (MIC) [7] [µg/mL] | Antibacterial activity (MIC) [8] [µg/mL] | Antibacterial activity (MIC) [9] [µg/mL] | Antibacterial activity (MIC) (S. aureus ROSE (MP)) [µg/mL] | also measured
Br.CC(Br)C(=O)Nc1cc(N(C)C)c2c(c1O)C(=O)C1=C(O)C3(O)C(=O)C(C(N)=O)=C(O)C(N(C)C)C3CC1C2 (centres unmarked) [JJJ] | 8 | 32 | 4 | > 32 | > 32 | 8 | 16 | 8 | > 32 | > 32 | 16 | 4 | > 32 | > 32 | > 32 | 16 | 32 | 32 | 4 | > 32 | Antibacterial activity (MIC) (E. coli J3272 TetD): > 32 µg/mL; Antibacterial activity (MIC) (S. mariescens FDOR 8733): > 32 µg/mL; Antibacterial activity (MIC) (E. faecalis 12201): 16 µg/mL; Antibacterial activity (MIC) [10]: > 32 µg/mL; Antibacterial activity (MIC) (E. coli J2175): > 32 µg/mL; Antibacterial activity (MIC) [11]: > 32 µg/mL; Antibacterial activity (MIC) (E. coli #311 (MP)): > 32 µg/mL; Antibacterial activity (MIC) [12]: 4 µg/mL; Antibacterial activity (MIC) (E. faecalis ATCC 29212): 16 µg/mL; Antibacterial activity (MIC) [13]: 16 µg/mL; Antibacterial activity (MIC) [14]: 2 µg/mL; Antibacterial activity (MIC) (E. coli ATCC 25922): > 32 µg/mL
CN(C)c1cc(NC(=O)CN2CCC2)c(O)c2c1CC1CC3C(N(C)C)C(O)=C(C(N)=O)C(=O)C3(O)C(O)=C1C2=O (stereo not drawn) [LLL, (7S-(7alpha,10aalpha)]-N-[9-(Aminocarbonyl)-4,7-bis(dimethylamino)-5,5a,6,6a,7,10,10a,12-octahydro-1,8,10a,11-tetrahydroxy-10,12-dioxo-2-naphthacenyl]-1-azetidineacetamide] | 0.25 | 0.25 | 0.12 | 0.5 | 0.5 | 0.25 | 2 | 0.25 | 0.25 | 0.25 | 1 | 0.06 | 0.5 | 0.25 | 1 | 0.25 | 2 | 2 | 0.25 | 2 | Antibacterial activity (MIC) (E. coli J3272 TetD): 0.12 µg/mL; Antibacterial activity (MIC) (S. mariescens FDOR 8733): 2 µg/mL; Antibacterial activity (MIC) (E. faecalis 12201): 0.25 µg/mL; Antibacterial activity (MIC) [10]: 0.5 µg/mL; Antibacterial activity (MIC) (E. coli J2175): 0.25 µg/mL; Antibacterial activity (MIC) [11]: 8 µg/mL; Antibacterial activity (MIC) (E. coli #311 (MP)): 0.25 µg/mL; Antibacterial activity (MIC) [12]: 0.25 µg/mL; Antibacterial activity (MIC) (E. faecalis ATCC 29212): 0.25 µg/mL; Antibacterial activity (MIC) [13]: 0.25 µg/mL; Antibacterial activity (MIC) [14]: 0.12 µg/mL; Antibacterial activity (MIC) (E. coli ATCC 25922): 0.25 µg/mL
CN(C)c1cc(NC(=O)CN2CCCCC2)c(O)c2c1CC1CC3C(N(C)C)C(O)=C(C(N)=O)C(=O)C3(O)C(O)=C1C2=O.Cl.Cl (stereo not drawn) [UU, [7S-(7alpha,10aalpha)]-N-[9-(Aminocarbonyl)-4,7-bis(dimethylamino)-5,5a,6,6a,7,10,10a,12-octahydro-1,8,10a,11-tetrahydroxy-10,12-dioxo-2-naphthacenyl)-1-piperidineacetamide dihydrochloride] | 0.25 | 0.12 | 0.06 | 0.5 | 0.5 | 0.25 | 0.25 | 0.12 | 0.5 | 0.5 | 0.12 | 0.06 | 0.5 | 0.5 | 1 | 0.25 | 0.25 | 0.5 | 0.12 | 0.5 | Antibacterial activity (MIC) (E. coli J3272 TetD): 0.25 µg/mL; Antibacterial activity (MIC) (S. mariescens FDOR 8733): 4 µg/mL; Antibacterial activity (MIC) (E. faecalis 12201): 0.12 µg/mL; Antibacterial activity (MIC) [10]: 0.5 µg/mL; Antibacterial activity (MIC) (E. coli J2175): 0.5 µg/mL; Antibacterial activity (MIC) [11]: 32 µg/mL; Antibacterial activity (MIC) (E. coli #311 (MP)): 0.25 µg/mL; Antibacterial activity (MIC) [12]: 0.12 µg/mL; Antibacterial activity (MIC) (E. faecalis ATCC 29212): 0.06 µg/mL; Antibacterial activity (MIC) [13]: 0.12 µg/mL; Antibacterial activity (MIC) [14]: 0.12 µg/mL; Antibacterial activity (MIC) (E. coli ATCC 25922): 0.25 µg/mL
CN(C)c1cc(NC(=O)CNC2CCC2)c(O)c2c1CC1CC3C(N(C)C)C(O)=C(C(N)=O)C(=O)C3(O)C(O)=C1C2=O (stereo not drawn) [MMM, [4S-(4alpha,12aalpha)]-g-[[(Cyclobutylamino)acetyl]amino]-4,7-Bis(dimethylamino)-1,4,4a,5,5a,6,11,12a-octahydro-3,10,12,12a-tetrahydroxy-1,11-dioxo-2-naphthacenecarboxamide] | 0.25 | 0.25 | 0.5 | 0.25 | 0.5 | 0.25 | 4 | 0.25 | 0.06 | 0.25 | 0.5 | 0.03 | 0.5 | 0.5 | 4 | 0.5 | 4 | 4 | 0.25 | 8 | Antibacterial activity (MIC) (E. coli J3272 TetD): 0.12 µg/mL; Antibacterial activity (MIC) (S. mariescens FDOR 8733): 8 µg/mL; Antibacterial activity (MIC) (E. faecalis 12201): 0.24 µg/mL; Antibacterial activity (MIC) [10]: 0.5 µg/mL; Antibacterial activity (MIC) (E. coli J2175): 0.25 µg/mL; Antibacterial activity (MIC) [11]: 32 µg/mL; Antibacterial activity (MIC) (E. coli #311 (MP)): 0.25 µg/mL; Antibacterial activity (MIC) [12]: 0.25 µg/mL; Antibacterial activity (MIC) (E. faecalis ATCC 29212): 0.25 µg/mL; Antibacterial activity (MIC) [13]: 0.24 µg/mL; Antibacterial activity (MIC) [14]: 0.12 µg/mL; Antibacterial activity (MIC) (E. coli ATCC 25922): 0.25 µg/mL
